Test results published in patent US10101319B2, “Methods of detecting plasmodium infection” (Commonwealth Scientific and Industrial Research Organisation, priority 2013, dated 2018).

What was measured:
P. falciparum = conditions: 13 evaluable volunteers; cited from earlier work
Plasmodium falciparum = assay: GC-MS analysis of exhaled breath volatiles and PCR parasitaemia, Cohort 1, induced blood stage malaria, treated with OZ439; format: in vivo, human; conditions: Cohort 1 compared with Cohort 2 (slower acting bisquinoline 4-aminoquinoline)
Experimental: This research was a controlled study using a blood stage Plasmodium falciparum (BSPC) inoculum challenge to characterize the efficacy of two anti-malaria drugs against early Plasmodium falciparum blood stage infection. Investigation of breath volatiles was an “add-on” to the anti-malarial efficacy studies. The study was conducted in two cohorts (n=8 for Cohort 1 and n=7 for Cohort 2) using different anti-malaria drugs. The anti-malaria drug investigated in Cohort 1 was OZ439 and the drug used in Cohort 2 was Piperaquine. OZ439, as an artemisin derivative, is rapidly absorbed, acts rapidly and is short-lived in the body. Piperaquine is absorbed slowly and has a long half-life in the body. […]
Each participant in the cohort was inoculated on Day 0 with ˜1,800 viable Plasmodium falciparum-infected human erythrocytes administered intravenously. On an outpatient basis, participants were monitored daily (AM) or morning (AM) and evening (PM), from day 3 until PCR positive for presence of malaria parasites, for adverse events and the unexpected early onset of symptoms, signs or parasitological evidence of malaria.
On the day designated for commencement of treatment, as determined by qPCR results (usually Day7/8 AM), participants were admitted to the study unit and confined for safety monitoring and anti-malaria drug administration with parasite load and drug levels being monitored. […]

artemether-lumefantrine
mean parasite reduction ratio (P. falciparum): 759

c1cc([C@H]2CC[C@]3(CC2)OO[C@]2(O3)C3CC4CC(C3)CC2C4)ccc1OCCN1CCOCC1 [OZ439]
Decline in parasitaemia and thioether levels after drug (Plasmodium falciparum): faster decline in parasitaemia and thioether levels

atovaquone-proguanil
mean parasite reduction ratio (P. falciparum): 17
